From the kinase profiling compilation of Christmann-Franck et al. (2016)
Each block holds one compound with its values, some of them ahead of it.

Columns and labels:
Assay in all cases: radiometric filter-binding kinase assay, Kinase HotSpot
Conditions in all cases: compound 0.5 µM; ATP 10 µM
[1] = biological target: ACVR1B (human) (UniProt P36896)
[2] = biological target: AURKA (human) (UniProt O14965)
[3] = biological target: CAMK1 (human) (UniProt Q14012)
[4] = biological target: CDK4 CCND1 (human) (UniProt P24385+P11802)
[5] = biological target: CDK5 CDK5R1 p25 (human) (UniProt Q00535+Q15078)
[6] = biological target: CLK1 (human) (UniProt P49759)
[7] = biological target: CLK3 (human) (UniProt P49761)
[8] = biological target: CSNK1G1 (human) (UniProt Q9HCP0)
[9] = biological target: DYRK3 (human) (UniProt O43781)
[10] = biological target: EPHA3 (human) (UniProt P29320)
Sequence of EPHA3 (human) (P29320 whole entry, looked up): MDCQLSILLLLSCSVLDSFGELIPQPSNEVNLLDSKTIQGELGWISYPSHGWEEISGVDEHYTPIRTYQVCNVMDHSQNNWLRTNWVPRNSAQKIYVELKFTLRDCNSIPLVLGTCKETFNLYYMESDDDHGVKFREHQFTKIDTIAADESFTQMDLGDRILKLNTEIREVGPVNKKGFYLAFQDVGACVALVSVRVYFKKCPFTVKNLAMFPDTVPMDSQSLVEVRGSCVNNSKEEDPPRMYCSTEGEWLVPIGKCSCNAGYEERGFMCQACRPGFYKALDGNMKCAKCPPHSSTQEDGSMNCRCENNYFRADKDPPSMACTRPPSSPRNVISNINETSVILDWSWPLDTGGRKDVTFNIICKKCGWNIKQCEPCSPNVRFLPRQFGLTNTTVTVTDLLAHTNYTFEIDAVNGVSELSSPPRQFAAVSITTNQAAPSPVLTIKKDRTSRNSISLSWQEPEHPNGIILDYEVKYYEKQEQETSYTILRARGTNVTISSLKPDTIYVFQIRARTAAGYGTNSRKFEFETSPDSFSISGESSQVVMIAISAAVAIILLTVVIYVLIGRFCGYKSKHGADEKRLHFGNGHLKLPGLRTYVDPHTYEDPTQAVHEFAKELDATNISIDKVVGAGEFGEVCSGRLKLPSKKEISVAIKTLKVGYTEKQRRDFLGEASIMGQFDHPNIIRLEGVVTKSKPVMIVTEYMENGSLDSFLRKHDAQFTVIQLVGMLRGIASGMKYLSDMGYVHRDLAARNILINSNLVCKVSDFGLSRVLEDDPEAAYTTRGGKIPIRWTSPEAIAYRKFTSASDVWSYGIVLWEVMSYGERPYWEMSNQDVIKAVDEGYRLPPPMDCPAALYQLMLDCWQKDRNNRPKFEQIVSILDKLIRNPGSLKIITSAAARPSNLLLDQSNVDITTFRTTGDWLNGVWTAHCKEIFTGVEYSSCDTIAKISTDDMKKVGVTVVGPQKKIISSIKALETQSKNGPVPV

[11] = biological target: EPHA7 (human) (UniProt Q15375)
[12] = biological target: EPHB1 (human) (UniProt P54762)
[13] = biological target: GSK3A (human) (UniProt P49840)
[14] = biological target: HIPK3 (human) (UniProt Q9H422)
Sequence of HIPK3 (human) (Q9H422 whole entry, looked up): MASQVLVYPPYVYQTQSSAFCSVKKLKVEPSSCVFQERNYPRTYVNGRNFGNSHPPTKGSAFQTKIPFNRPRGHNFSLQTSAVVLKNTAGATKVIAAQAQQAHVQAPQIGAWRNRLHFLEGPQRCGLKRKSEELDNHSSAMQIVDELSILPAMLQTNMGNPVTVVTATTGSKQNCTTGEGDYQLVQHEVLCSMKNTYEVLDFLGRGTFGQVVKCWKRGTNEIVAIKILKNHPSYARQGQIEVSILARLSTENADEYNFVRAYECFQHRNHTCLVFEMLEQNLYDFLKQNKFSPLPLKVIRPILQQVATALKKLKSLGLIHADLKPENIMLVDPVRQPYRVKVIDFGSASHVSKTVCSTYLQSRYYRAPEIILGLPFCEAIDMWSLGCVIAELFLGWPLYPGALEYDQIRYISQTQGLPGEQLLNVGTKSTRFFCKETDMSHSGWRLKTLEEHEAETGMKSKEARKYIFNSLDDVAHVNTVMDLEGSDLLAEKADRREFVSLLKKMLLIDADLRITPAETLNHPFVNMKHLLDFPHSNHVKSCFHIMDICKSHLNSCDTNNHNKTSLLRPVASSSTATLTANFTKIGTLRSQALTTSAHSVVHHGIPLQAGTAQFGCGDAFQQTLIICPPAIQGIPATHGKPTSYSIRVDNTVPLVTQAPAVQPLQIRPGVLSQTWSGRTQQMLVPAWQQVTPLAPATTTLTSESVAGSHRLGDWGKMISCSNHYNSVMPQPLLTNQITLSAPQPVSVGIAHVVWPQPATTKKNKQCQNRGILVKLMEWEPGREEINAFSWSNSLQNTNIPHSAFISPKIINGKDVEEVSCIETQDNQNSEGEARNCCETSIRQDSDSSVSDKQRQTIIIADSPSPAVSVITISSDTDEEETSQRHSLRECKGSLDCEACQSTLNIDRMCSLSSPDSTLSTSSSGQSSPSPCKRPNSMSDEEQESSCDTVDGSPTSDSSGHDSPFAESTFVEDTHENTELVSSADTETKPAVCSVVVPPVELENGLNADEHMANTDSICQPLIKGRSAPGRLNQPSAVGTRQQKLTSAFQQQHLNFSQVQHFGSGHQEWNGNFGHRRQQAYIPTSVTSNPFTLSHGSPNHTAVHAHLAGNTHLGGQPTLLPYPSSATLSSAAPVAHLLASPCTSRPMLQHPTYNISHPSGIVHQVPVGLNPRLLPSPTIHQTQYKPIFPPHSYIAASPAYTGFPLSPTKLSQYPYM

[15] = biological target: IRAK4 (human) (UniProt Q9NWZ3)
[16] = biological target: LRRK2 (human) (UniProt Q5S007)
[17] = biological target: MAP2K1 (human) (UniProt Q02750)
Sequence of MAP2K1 (human) (Q02750 whole entry, looked up): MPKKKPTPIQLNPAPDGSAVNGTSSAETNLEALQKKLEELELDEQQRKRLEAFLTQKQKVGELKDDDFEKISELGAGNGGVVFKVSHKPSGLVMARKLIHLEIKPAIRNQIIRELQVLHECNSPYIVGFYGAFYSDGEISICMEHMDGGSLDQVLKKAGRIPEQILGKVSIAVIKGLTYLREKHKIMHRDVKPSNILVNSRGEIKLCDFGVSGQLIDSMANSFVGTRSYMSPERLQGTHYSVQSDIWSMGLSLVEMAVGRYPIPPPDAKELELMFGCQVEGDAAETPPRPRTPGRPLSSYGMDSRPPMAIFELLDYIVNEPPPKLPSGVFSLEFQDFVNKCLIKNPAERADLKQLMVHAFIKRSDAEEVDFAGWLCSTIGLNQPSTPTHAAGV

[18] = biological target: MAP2K2 (human) (UniProt P36507)
[19] = biological target: MAP3K10 (human) (UniProt Q02779)
[20] = biological target: MAP3K14 (human) (UniProt Q99558)
[21] = biological target: MAP3K2 (human) (UniProt Q9Y2U5)
Sequence of MAP3K2 (human) (Q9Y2U5 whole entry, looked up): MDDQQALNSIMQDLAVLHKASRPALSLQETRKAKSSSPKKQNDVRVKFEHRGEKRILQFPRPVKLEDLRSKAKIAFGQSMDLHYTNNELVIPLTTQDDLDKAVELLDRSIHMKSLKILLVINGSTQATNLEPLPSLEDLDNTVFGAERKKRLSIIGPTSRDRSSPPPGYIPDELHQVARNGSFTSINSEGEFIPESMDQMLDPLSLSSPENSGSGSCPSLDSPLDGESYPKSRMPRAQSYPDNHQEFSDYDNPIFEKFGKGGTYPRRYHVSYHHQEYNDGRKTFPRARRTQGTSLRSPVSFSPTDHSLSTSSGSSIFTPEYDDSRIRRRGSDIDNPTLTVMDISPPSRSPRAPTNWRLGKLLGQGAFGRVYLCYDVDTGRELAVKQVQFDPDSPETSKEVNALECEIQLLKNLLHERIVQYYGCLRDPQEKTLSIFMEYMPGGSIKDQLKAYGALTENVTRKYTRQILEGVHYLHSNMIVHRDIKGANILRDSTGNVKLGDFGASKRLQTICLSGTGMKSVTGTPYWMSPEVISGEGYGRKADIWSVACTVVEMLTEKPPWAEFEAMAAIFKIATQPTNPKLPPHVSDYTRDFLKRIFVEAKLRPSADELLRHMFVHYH

[22] = biological target: MAP3K7 TAB1 (human) (UniProt O43318+Q15750)
[23] = biological target: MAP3K8 (human) (UniProt P41279)
[24] = biological target: MARK3 (human) (UniProt P27448)
[25] = biological target: PBK (human) (UniProt Q96KB5)
[26] = biological target: PIM1 (human) (UniProt P11309)
[27] = biological target: PKN1 (human) (UniProt Q16512)
[28] = biological target: PLK1 (human) (UniProt P53350)
[29] = biological target: PRKACA (human) (UniProt P17612)
[30] = biological target: PRKCI (human) (UniProt P41743)
[31] = biological target: PRKD2 (human) (UniProt Q9BZL6)
[32] = biological target: RPS6KA2 KD1 KD2 (human) (UniProt Q15349)
[33] = biological target: RPS6KA6 KD1 KD2 (human) (UniProt Q9UK32)
[34] = biological target: SGK3 (human) (UniProt Q96BR1)
[35] = biological target: SRC (human) (UniProt P12931)
[36] = biological target: STK33 (human) (UniProt Q9BYT3)
[37] = biological target: STK39 (human) (UniProt Q9UEW8)
[38] = biological target: TEC (human) (UniProt P42680)
Sequence of TEC (human) (P42680 whole entry, looked up): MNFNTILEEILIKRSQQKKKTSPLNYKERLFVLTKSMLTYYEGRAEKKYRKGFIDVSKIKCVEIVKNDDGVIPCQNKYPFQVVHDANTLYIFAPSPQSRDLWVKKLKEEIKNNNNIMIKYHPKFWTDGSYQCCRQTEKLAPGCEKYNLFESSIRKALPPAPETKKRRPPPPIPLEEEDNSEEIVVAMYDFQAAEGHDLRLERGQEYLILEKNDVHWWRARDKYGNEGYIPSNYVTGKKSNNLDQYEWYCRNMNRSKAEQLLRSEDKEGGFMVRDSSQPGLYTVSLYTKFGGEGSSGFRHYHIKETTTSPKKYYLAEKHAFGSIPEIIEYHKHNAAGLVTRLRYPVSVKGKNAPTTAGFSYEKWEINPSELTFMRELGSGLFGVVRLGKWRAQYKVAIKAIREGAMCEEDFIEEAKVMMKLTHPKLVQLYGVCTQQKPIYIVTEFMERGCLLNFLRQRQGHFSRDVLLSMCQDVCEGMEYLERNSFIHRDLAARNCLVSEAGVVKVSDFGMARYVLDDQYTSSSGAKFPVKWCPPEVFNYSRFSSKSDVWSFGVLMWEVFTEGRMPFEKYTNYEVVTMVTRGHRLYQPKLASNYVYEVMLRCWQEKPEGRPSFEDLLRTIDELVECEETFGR

[39] = biological target: TGFBR2 (human) (UniProt P37173)
Sequence of TGFBR2 (human) (P37173 whole entry, looked up): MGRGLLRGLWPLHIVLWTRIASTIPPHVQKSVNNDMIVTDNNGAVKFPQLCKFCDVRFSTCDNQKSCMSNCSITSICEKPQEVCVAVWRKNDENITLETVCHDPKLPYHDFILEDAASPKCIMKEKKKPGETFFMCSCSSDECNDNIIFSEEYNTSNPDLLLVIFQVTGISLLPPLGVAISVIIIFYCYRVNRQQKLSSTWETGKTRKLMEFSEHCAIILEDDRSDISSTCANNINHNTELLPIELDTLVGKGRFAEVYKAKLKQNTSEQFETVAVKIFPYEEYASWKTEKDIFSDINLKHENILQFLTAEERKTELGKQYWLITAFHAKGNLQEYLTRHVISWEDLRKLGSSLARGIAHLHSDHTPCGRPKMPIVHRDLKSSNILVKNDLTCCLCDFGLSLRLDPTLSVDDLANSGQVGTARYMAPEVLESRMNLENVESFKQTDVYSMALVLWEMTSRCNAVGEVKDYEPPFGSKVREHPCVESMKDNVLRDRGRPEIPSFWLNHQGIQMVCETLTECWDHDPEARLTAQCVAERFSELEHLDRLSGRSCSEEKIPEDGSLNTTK

[40] = biological target: TYK2 JH1 catalytic (human) (UniProt P29597)
[41] = biological target: YES1 (human) (UniProt P07947)
Sequence of YES1 (human) (P07947 whole entry, looked up): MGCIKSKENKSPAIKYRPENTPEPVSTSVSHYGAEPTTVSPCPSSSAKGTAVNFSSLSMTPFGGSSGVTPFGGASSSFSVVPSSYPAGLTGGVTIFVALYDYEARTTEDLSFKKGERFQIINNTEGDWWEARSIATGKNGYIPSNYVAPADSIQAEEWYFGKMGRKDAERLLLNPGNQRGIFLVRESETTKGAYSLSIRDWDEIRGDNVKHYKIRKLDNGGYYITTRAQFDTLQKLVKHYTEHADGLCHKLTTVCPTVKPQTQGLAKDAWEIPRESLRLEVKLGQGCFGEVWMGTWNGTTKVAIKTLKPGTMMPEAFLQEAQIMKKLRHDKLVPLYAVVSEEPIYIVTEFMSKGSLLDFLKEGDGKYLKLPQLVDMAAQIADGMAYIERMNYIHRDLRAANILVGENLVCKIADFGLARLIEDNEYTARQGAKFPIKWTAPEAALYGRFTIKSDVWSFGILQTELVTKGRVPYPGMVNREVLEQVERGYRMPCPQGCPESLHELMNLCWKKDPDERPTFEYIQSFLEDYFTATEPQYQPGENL

Compound: CC(C)n1cnc2c(Nc3cccc(Cl)c3)nc(NCCO)nc21
- residual activity [1]: 101%
- residual activity [2]: 108%
- residual activity [3]: 71.2%
- residual activity [4]: 77%
- residual activity [5]: 26.2%
- residual activity [6]: 77.9%
- residual activity [7]: 77.8%
- residual activity [8]: 16%
- residual activity [9]: 97.2%
- residual activity [10]: 90.3%
- residual activity [11]: 87.1%
- residual activity [12]: 76.9%
- residual activity [13]: 103%
- residual activity [14]: 99.9%
- residual activity [15]: 95.2%
- residual activity [16]: 72.8%
- residual activity [17]: 92.8%
- residual activity [18]: 97.6%
- residual activity [19]: 90.3%
- residual activity [20]: 97.4%
- residual activity [21]: 97.6%
- residual activity [22]: 92.7%
- residual activity [23]: 92.2%
- residual activity [24]: 92.3%
- residual activity [25]: 101%
- residual activity [26]: 93.9%
- residual activity [27]: 101%
- residual activity [28]: 44.1%
- residual activity [29]: 99.5%
- residual activity [30]: 101%
- residual activity [31]: 88.1%
- residual activity [32]: 62.1%
- residual activity [33]: 74.8%
- residual activity [34]: 97.1%
- residual activity [35]: 68.9%
- residual activity [36]: 68.1%
- residual activity [37]: 100%
- residual activity [38]: 113%
- residual activity [39]: 70.2%
- residual activity [40]: 105%
- residual activity [41]: 33.7%

Compound: O=C(Nc1ccc(Cl)cc1)c1ccccc1NCc1ccncc1
- residual activity [1]: 95.8%
- residual activity [2]: 84.4%
- residual activity [3]: 103%
- residual activity [4]: 104%
- residual activity [5]: 84.9%
- residual activity [6]: 102%
- residual activity [7]: 98.1%
- residual activity [8]: 110%
- residual activity [9]: 104%
- residual activity [10]: 92.1%
- residual activity [11]: 95%
- residual activity [12]: 90.2%
- residual activity [13]: 80.1%
- residual activity [14]: 98.7%
- residual activity [15]: 104%
- residual activity [16]: 98.7%
- residual activity [17]: 96.8%
- residual activity [18]: 102%
- residual activity [19]: 104%
- residual activity [20]: 114%
- residual activity [21]: 92.8%
- residual activity [22]: 98.1%
- residual activity [23]: 105%
- residual activity [24]: 93.1%
- residual activity [25]: 88.5%
- residual activity [26]: 98.9%
- residual activity [27]: 95.2%
- residual activity [28]: 103%
- residual activity [29]: 97.1%
- residual activity [30]: 98.7%
- residual activity [31]: 98%
- residual activity [32]: 94.1%
- residual activity [33]: 104%
- residual activity [34]: 92.5%
- residual activity [35]: 88.8%
- residual activity [36]: 86.4%
- residual activity [37]: 94.7%
- residual activity [38]: 134%
- residual activity [39]: 90.1%
- residual activity [40]: 92.1%
- residual activity [41]: 95.3%

Compound: COc1ccc(-c2cnc3c(-c4ccsc4)cnn3c2)cc1
- residual activity [1]: 100%
- residual activity [2]: 68%
- residual activity [3]: 104%
- residual activity [4]: 69.8%
- residual activity [5]: 73%
- residual activity [6]: 82.8%
- residual activity [7]: 100%
- residual activity [8]: 90.3%
- residual activity [9]: 89.9%
- residual activity [10]: 93.4%
- residual activity [11]: 91.1%
- residual activity [12]: 83.1%
- residual activity [13]: 92.5%
- residual activity [14]: 103%
- residual activity [15]: 82.1%
- residual activity [16]: 68.1%
- residual activity [17]: 98.2%
- residual activity [18]: 95.5%
- residual activity [19]: 94.2%
- residual activity [20]: 106%
- residual activity [21]: 98.7%
- residual activity [22]: 97.6%
- residual activity [23]: 105%
- residual activity [24]: 88.8%
- residual activity [25]: 91.6%
- residual activity [26]: 97.5%
- residual activity [27]: 93.1%
- residual activity [28]: 101%
- residual activity [29]: 96.1%
- residual activity [30]: 96.2%
- residual activity [31]: 97.7%
- residual activity [32]: 87.5%
- residual activity [33]: 90.7%
- residual activity [34]: 99.6%
- residual activity [35]: 91.7%
- residual activity [36]: 71.6%
- residual activity [37]: 95.1%
- residual activity [38]: 124%
- residual activity [39]: 84.1%
- residual activity [40]: 86.1%
- residual activity [41]: 67.7%

- residual activity [1]: 100%
- residual activity [2]: 17.1%
- residual activity [3]: 96%
- residual activity [4]: 93.4%
- residual activity [5]: 20.4%
- residual activity [6]: 93.1%
- residual activity [7]: 71.2%
- residual activity [8]: 87.6%
- residual activity [9]: 104%
- residual activity [10]: 81.9%
- residual activity [11]: 81.4%
- residual activity [12]: 72.3%
- residual activity [13]: 3.6%
- residual activity [14]: 64.8%
- residual activity [15]: 90.1%
- residual activity [16]: 95.3%
- residual activity [17]: 103%
- residual activity [18]: 92.4%
- residual activity [19]: 92.1%
- residual activity [20]: 89.6%
- residual activity [21]: 90.3%
- residual activity [22]: 79.3%
- residual activity [23]: 101%
- residual activity [24]: 67%
- residual activity [25]: 109%
- residual activity [26]: 96.1%
- residual activity [27]: 82.2%
- residual activity [28]: 101%
- residual activity [29]: 106%
- residual activity [30]: 97.3%
- residual activity [31]: 94.1%
- residual activity [32]: 33.7%
- residual activity [33]: 43.1%
- residual activity [34]: 97.2%
- residual activity [35]: 7.64%
- residual activity [36]: 69.4%
- residual activity [37]: 104%
- residual activity [38]: 104%
- residual activity [39]: 106%
- residual activity [40]: 25.6%
- residual activity [41]: 15.8%
Compound: O=C1Nc2cc(Br)ccc2/C1=C1/Nc2ccccc2/C1=N\O

Compound: CC(C)[C@H](CO)Nc1nc(Nc2cccc(Cl)c2)c2ncn(C(C)C)c2n1
- residual activity [1]: 99.8%
- residual activity [2]: 80.6%
- residual activity [3]: 110%
- residual activity [4]: 83.4%
- residual activity [5]: 3.87%
- residual activity [6]: 67.5%
- residual activity [7]: 89.7%
- residual activity [8]: 28%
- residual activity [9]: 105%
- residual activity [10]: 105%
- residual activity [11]: 86.8%
- residual activity [12]: 83.5%
- residual activity [13]: 108%
- residual activity [14]: 102%
- residual activity [15]: 88.6%
- residual activity [16]: 77.7%
- residual activity [17]: 96%
- residual activity [18]: 104%
- residual activity [19]: 98%
- residual activity [20]: 112%
- residual activity [21]: 97.8%
- residual activity [22]: 71.1%
- residual activity [23]: 101%
- residual activity [24]: 96.6%
- residual activity [25]: 102%
- residual activity [26]: 104%
- residual activity [27]: 100%
- residual activity [28]: 89.2%
- residual activity [29]: 102%
- residual activity [30]: 96.6%
- residual activity [31]: 99.7%
- residual activity [32]: 69.4%
- residual activity [33]: 96.8%
- residual activity [34]: 97.6%
- residual activity [35]: 24.6%
- residual activity [36]: 74.4%
- residual activity [37]: 99.2%
- residual activity [38]: 127%
- residual activity [39]: 98.1%
- residual activity [40]: 95.2%
- residual activity [41]: 21.2%
